{"source": "patent US20260042831A1", "about": "“METHODS OF TREATING SARCOIDOSIS WITH A TNF-A ANTIBODY AND ASSOCIATED COMPOSITIONS AND METHODS” (XENTRIA, INC., priority 2022, published 2026)", "key": {"[1]": {"test_system": "chronic refractory pulmonary sarcoidosis", "settings": "low- and high-dose IV infusion, at 24 weeks; cited from earlier work"}, "[2]": {"test_system": "normal human tissues and human sarcoidosis tissue", "assay": "Tissue cross-reactivity study (GLP, immunohistochemistry on cryosections)", "format": "binding", "settings": "for Tissues Showing Evidence of Staining: Sp2/0-Ag14 cells: negative control; for Tissues Showing Evidence of Staining: T3-33 (TNFα-expressing) cells: positive control, 5 and 20 μg/mL", "protocol": "Human tonsil, human lung and lymph node with sarcoidosis, and human small intestine with Crohn's disease were also included in the study.\nSamples from 1 to 3 separate donors from each of the listed tissues were evaluated. Fresh, unfixed tissue samples were placed into molds, filled with Tissue-Tek® OCT Compound, and frozen at −85 to −70° C. until sectioning. Sections were cut at approximately 5 μm and fixed in acetone for 10 minutes at room temperature. Human blood smears were stored at −85° to −70° C. until fixation and staining. XTMAB16 (primary antibody) was incubated overnight with biotinylated donkey anti-human IgG secondary labeled antibody. XTMAB16 and the control article, hIgG1, were tested at concentration of 5 and 20 μg/mL. Immunopathology was assessed by light microscopy.\nThe following human tissues were assessed in this cross-reactivity study: • 1. Positive Control: • Cryosections of T3-33 (TNFα-expressing) cells • 2. Negative Control: • Cryosections of Sp2/0-Ag14 cells • 3. Ancillary Controls: • Cryosections of human tonsil (mononuclear cells; 2 donors) • Cryosections of human small intestine with Crohn's disease (mononuclear cells; 1 donor) • Cryosections of human lung with sarcoidosis (mononuclear cells; 1 donor) • Cryosections of human lymph node with sarcoidosis (mononuclear cells; 1 donor)"}, "[3]": {"test_system": "transgenic TC (TgTC) mice (rheumatoid arthritis model)", "assay": "In vivo primary pharmacology: arthritis scores in TgTC mice", "parameters": "species or system mouse", "settings": "for arthritis scores compared to vehicle control: Day 29 and Day 43 (p<0.01)"}, "[4]": {"test_system": "TNFα, IL-1β, IFNγ release", "assay": "In vitro granuloma model of sarcoidosis: supernatant cytokine release (ELISA)", "settings": "30 minutes pre-treatment, 7 days following PPD", "from_the_text": "(§1) PMBCs were exposed to either uncoated bead (UNC) or Mycobacterium tuberculosis (M. tb) antigen PPD-coated beads for 7 days. […] Following imaging, supernatant samples were collected and quantified for extracellular cytokine release using an enzyme-linked immunosorbent assay."}, "[5]": {"test_system": "PBMCs from subjects with active pulmonary sarcoidosis", "assay": "In vitro granuloma model of sarcoidosis: granuloma formation (MIPAR area fraction)", "from_the_text": "as §1"}, "[6]": {"settings": "higher staining concentration (20 μg/mL), rare to occasional cells"}, "[7]": {"settings": "lower staining concentration (5 μg/mL)"}}, "note": "“Also recorded” adds a separate entry of the source. Read-outs that look alike come from different tables or passages of the source."}
{"substance": "Infliximab: a monoclonal antibody (mAb) targeting TNFα that is being used off-label to treat sarcoidosis", "values": [{"measurement": "increase in predicted forced vital capacity", "setting": "[1]", "value": 2.5, "unit": "%"}]}
{"substance": "XTMAB-16: a chimeric (human/murine) IgG1 mAb directed against TNFα", "values": [{"measurement": "Tissues Showing Evidence of Staining: Smooth myocytes", "setting": "[2]; adrenal, bladder, cerebellum, cerebral cortex, cervix, kidney, large intestine, liver, lymph node, lung, striated muscle, nerve, ovary, pancreas, placenta, prostate, parathyroid, skin, small intestine, spleen, stomach, testis, thymus, tonsil, uterus", "value": "Cytoplasm of vascular and/or intrinsic smooth"}, {"measurement": "Tissues Showing Evidence of Staining: mononuclear cells in human tonsil, small intestine with Crohn's disease, lung with sarcoidosis, lymph node with sarcoidosis", "setting": "[2]; ancillary controls", "value": "Ancillary control tissues (+)"}, {"measurement": "majority of non-mononuclear cell binding", "setting": "[2]; binding observed at only the higher concentration in most tissues", "value": "low affinity"}, {"measurement": "Tissues Showing Evidence of Staining: Epithelial cells", "setting": "[2]; esophagus, Fallopian tube, kidney, lung (bronchioles), pancreas (acini), pituitary, salivary gland, skin (sweat glands), stomach (mucosa)", "value": "Cytoplasm only of epithelial cells stained"}, {"measurement": "mononuclear cell staining intensity in normal human tissues", "setting": "[2]; higher concentration", "value": "weak to strong or weak to moderate"}, {"measurement": "staining of membrane and cytoplasm of mononuclear cells in human tonsil", "setting": "[2]; [6]", "value": "weakly to strongly stained"}, {"measurement": "staining of mononuclear cells in small intestine with Crohn's disease, lung with sarcoidosis, lymph node with sarcoidosis", "setting": "[2]; [6]", "value": "weakly to strongly stained"}, {"measurement": "Tissues Showing Evidence of Staining: Glomerular tuft cells", "setting": "[2]; kidney", "value": "Cytoplasm of renal glomerular tuft cells"}, {"measurement": "mononuclear cell staining in normal human tissues", "setting": "[2]; lower concentration, versus higher concentration", "value": "comparable, reduced, or no staining"}, {"measurement": "staining of mononuclear cells in human tonsil", "setting": "[2]; [7]", "value": "weak to strong and rare staining"}, {"measurement": "staining of mononuclear cells in small intestine with Crohn's disease, lung with sarcoidosis, lymph node with sarcoidosis", "setting": "[2]; [7]", "value": "weak to moderate and rare staining"}, {"measurement": "Tissues Showing Evidence of Staining: Endothelial cells", "setting": "[2]; lymph node", "value": "Cytoplasm of endothelial cells in the lymph node."}, {"measurement": "Tissues Showing Evidence of Staining: Myoepithelial cells", "setting": "[2]; mammary gland", "value": "Membrane and cytoplasm of myoepithelial cells"}, {"measurement": "Tissues Showing Evidence of Staining: Sp2/0-Ag14 cells", "setting": "[2]", "value": "Negative control cryosections (−)"}, {"measurement": "Tissues Showing Evidence of Staining: Sp2/0-Ag14 cells", "setting": "[2]; listed as XTMAB16", "value": "did not react specifically"}, {"measurement": "Tissues Showing Evidence of Staining: Mononuclear cells", "setting": "[2]; normal human bladder, cervix, esophagus, large intestine, liver (Kupffer cells), lymph node, lung, pancreas, placenta (Hofbauer cells), parathyroid, salivary gland, skin, small intestine, spleen, stomach, thyroid, thymus, tonsil, uterus", "value": "stained the membrane and cytoplasm; also recorded: Membrane and cytoplasm of resident, migrating,"}, {"measurement": "Tissues Showing Evidence of Staining: T3-33 (TNFα-expressing) cells", "setting": "[2]", "value": "Positive control cells (+)"}, {"measurement": "Tissues Showing Evidence of Staining: T3-33 (TNFα-expressing) cells", "setting": "[2]; listed as XTMAB16", "value": "weak to strong membrane and cytoplasmic staining"}, {"measurement": "arthritis scores compared to vehicle control", "setting": "[3]; 20 mg/kg/dose on Days 1, 15, 29", "value": "statistically significant improvement"}, {"measurement": "arthritis scores compared to vehicle control", "setting": "[3]; 40 mg/kg/dose on Days 1, 15, 29", "value": "statistically significant improvement"}, {"measurement": "arthritis scores, 20 versus 40 mg/kg/dose", "setting": "[3]; t test: p>0.05", "value": "no significant differences"}, {"measurement": "granuloma cytokine release", "setting": "[4]", "value": "significant dose-response effect"}, {"measurement": "IC50 for decrease in granuloma area fraction", "setting": "[5]", "value": 5.197, "unit": "µg/mL"}, {"measurement": "granuloma formation (area fraction)", "setting": "[5]; 30 minutes pre-treatment (XTMAB-16 1 to 40 μg/mL; prednisone 1 to 10 μM), 7 days following PPD", "value": "significantly attenuated; also recorded: significant dose-response effect"}, {"measurement": "IC50 for decrease in granuloma area fraction", "setting": "[5]; MIPAR area fraction, all subject samples, 7 days after PPD-coated beads", "value": 5.2, "unit": "µg/mL"}]}
